Assay results taken from PubChem BioAssay AID687029 (Broad Institute, 2013).

Test system: RMG-1 viability, CellTiterGlo ATP luminescence, 96 h
Test: RMG-1 ovarian cancer cell viability loss – cherry-pick, dose response (AID 687029)

| Structure (SMILES) | AC50 [nM] |
| --- | --- |
| O=C(NCc1ccco1)C1CCCN(S(=O)(=O)c2ccc(Br)cc2)C1 (centres undefined) | < 260 |
| C[C@@H]1CN([C@H](C)CO)C(=O)c2cc(NS(=O)(=O)c3ccc(Cl)cc3)ccc2O[C@@H](C)CCCCO[C@@H]1CN(C)Cc1ccccc1 | < 260 |
| Cc1ccc(-c2csc3ncnc(Sc4nnc(CN5CCCCCC5=O)o4)c23)cc1 | 10800 |
| O=S(=O)(NCC1CCCO1)c1cnc(Cl)c(Br)c1 (centres undefined) | < 260 |
| CCOC(=O)c1c(-c2ccc(F)cc2)csc1NC(=O)CN1C(=O)NC2(CCCCC2C)C1=O (centres undefined) | 12400 |
| O=c1[nH]c2ccccc2n1C1CCN(C(c2cccs2)c2nnnn2-c2ccc3c(c2)OCCO3)CC1 (centres undefined) | < 260 |
| COc1cccc(CC(=O)Nc2nc3c(s2)C(=O)CC(C)(C)C3)c1 | < 260 |
| C[C@H](CO)N1C[C@H](C)[C@H](CN(C)S(=O)(=O)c2ccc(Cl)cc2)OCCCC[C@H](C)Oc2ccc(NS(=O)(=O)c3ccc(F)cc3)cc2C1=O | < 260 |
| C#CCN(C[C@@H]1[C@@H](OC(=O)NCC2CCCCC2)[C@@H](OC(=O)NCC2CCCCC2)Cn2c(=O)ccc(=O)n21)S(=O)(=O)c1ccc(C)cc1 | < 260 |
| CC(=O)[C@@]1(O)Cc2c(O)c3c(c(O)c2[C@H](O[C@H]2C[C@H](N)[C@H](O)[C@H](C)O2)C1)C(=O)c1ccccc1C3=O | 9480 |
| COc1ccc(C2=NNC(=Nc3cc(S(=O)(=O)N(C)C)ccc3C)SC2)c(OC)c1 | < 260 |
| Cc1cc(Nc2ccc3c(c2)OCCO3)c2ccccc2n1 | < 260 |
| CCCn1c(C)cc(C(=O)CN2C(=O)c3ccccc3S2(=O)=O)c1C | < 260 |
| Cn1c(CCN2CCCC2)nc2cc(NS(=O)(=O)c3ccccc3)ccc21 | < 260 |
| Cc1ccc(C(=O)N/C(=C\c2ccc(-c3ccc(Br)cc3)o2)C(=O)NCCCN(C)C)cc1 | 12500 |
| C#CCN(C[C@@H]1[C@@H](OC(=O)NCc2ccccc2F)[C@@H](OC(=O)NCc2ccccc2F)Cn2c(=O)ccc(=O)n21)S(=O)(=O)c1ccc(C)cc1 | < 260 |
| CSC(=Nc1ccccc1)N=C(SCc1ccccc1)N(C)C | < 260 |
| CCSc1cc(N2CCOCC2)nc(-c2ccc(Cl)cc2)n1 | < 260 |
| COc1ccc(Cn2cc3c(-c4ccc(F)cc4)nnc-3c3cc(OC)c(OC)cc32)cc1 | 21300 |
| O=C(O)c1cccc(COc2ccc3c(c2)CCC3)c1 | < 260 |
| C[C@@H]1CCCCO[C@@H](CN(C)C(=O)Nc2cccc3ccccc23)[C@H](C)CN([C@H](C)CO)C(=O)c2cc(NS(=O)(=O)c3ccccc3)ccc2O1 | < 260 |
| CCc1cc(-c2n[nH]c(C)c2-c2nc3ccccc3n2C)c(O)cc1O | < 260 |
| C[C@]12CC[C@H]3[C@@H](CC[C@]4(O)C[C@@H](O)CC[C@]34C=O)[C@@]1(O)CC[C@@H]2C1=CC(=O)OC1 | < 260 |
| C[C@H](CO)N1C[C@H](C)[C@H](CN(C)Cc2ccc(C(F)(F)F)cc2)OCCCC[C@H](C)Oc2ccc(NS(=O)(=O)c3ccccc3)cc2C1=O | 927 |

| Structure (SMILES) | AC50 [nM] |
| --- | --- |
| C[C@H](O)[C@@H]1CN2CCc3c([nH]c4ccc(-c5ccc6c(c5)OCO6)cc34)[C@@H]2C[C@@H]1N(C)C(=O)NC1CCCCC1 | < 260 |
| COc1cc(OC)cc(C(=O)NCC(=O)OCC(=O)c2cc(C)n(Cc3ccco3)c2C)c1 | < 260 |
| C(=Cc1cnc2ccccc2n1)c1ccc2c(c1)OCO2 | 12900 |
| CCCNC(=O)Nc1ccc2c(c1)OC[C@H](C)N(Cc1ccc(-c3ccccn3)cc1)C[C@@H](C)[C@@H](OC)CN(C)C2=O | < 260 |
| Cn1nnnc1Sc1ncnc2scc(-c3cccc(S(C)(=O)=O)c3)c12 | 10200 |
| CCC(c1nnnn1Cc1ccccc1)N1CCC(n2c(=O)[nH]c3ccccc32)CC1 (centres undefined) | < 260 |
| CCN(CC(=O)Nc1c(F)cccc1F)C(=O)c1cc(S(=O)(=O)N(C)C)ccc1N1CCCC1 | < 260 |
| COc1ccccc1C(=O)Nc1nc2ccccc2[nH]1 | 12300 |
| O=C(c1cc([N+](=O)[O-])ccc1N1CCOCC1)N1CCN(c2ccccc2)CC1 | < 260 |
| CC(C)(C)[C@H](N)C(=O)N[C@H]1CCC2C3CC=C4C[C@@H](O)CC[C@]4(C)C3CC[C@@]21C (some centres undefined) | < 260 |
| C[C@@H]1CCCCO[C@@H](CN(C)C(=O)Nc2cccc3ccccc23)[C@H](C)CN([C@H](C)CO)C(=O)c2cc(NS(=O)(=O)c3ccc(F)cc3)ccc2O1 | < 260 |
| FC(F)(F)c1nnc2c(Sc3ccccn3)nc3ccccc3n12 | 14200 |
| O=C(NCc1cc(C(F)(F)F)ccc1Cl)c1cccc2c1C(=O)c1ccc(N3CCC(N4CCCCC4)CC3)cc1S2(=O)=O | < 260 |
| CN1c2ccccc2N(C)C1(C)c1ccccc1 | < 260 |
| Cc1ccsc1/C=N/Nc1cccc(C(=O)O)c1 | 13200 |
| Cc1cc(C2=NNC(=NC3CC3)SC2)c(C)n1-c1ccccc1F | < 260 |
| COc1cccc(N2CCN(C(=O)c3ccc(CS(=O)c4ccccc4Cl)o3)CC2)c1 (centres undefined) | < 260 |
| C[C@H](CO)N1C[C@H](C)[C@@H](CN(C)S(=O)(=O)c2ccc(Cl)cc2)OCCCC[C@H](C)Oc2ccc(NS(=O)(=O)c3ccc(Cl)cc3)cc2C1=O | < 260 |
| Cc1nc2sc(C(c3ccco3)N3CCN(C(c4ccccc4)c4ccccc4)CC3)c(O)n2n1 (centres undefined) | < 260 |
| C=C1C(=O)C2=CC1CCC(=O)C1(C)CCC(OC(C)=O)C(C)(C)C1CC2O (centres undefined) | < 260 |
| CC1CN(CC(O)COC(c2ccccc2)c2ccccc2)CC(C)O1 (centres undefined) | < 260 |
| COc1cc(OC)c2c(-c3cccc(-c4ccc(OC)c(F)c4)c3)cc(=O)oc2c1 | 11400 |
| Cc1nnc(N/N=C/c2cc(C)n(-c3ccc(F)cc3)c2C)n1N | 8360 |
| C[C@]12CCC3C(CCC4=CC(O)CC[C@@]43/C=N/O)C1(O)CCC2C1=CC(=O)OC1 (some centres undefined) | < 260 |

| Structure (SMILES) | AC50 [nM] |
| --- | --- |
| C[C@@H]1CCCCO[C@H](CN(C)C(=O)C2CCCCC2)[C@@H](C)CN([C@@H](C)CO)C(=O)c2cc(NC(=O)Nc3ccc(F)cc3)ccc2O1 | < 260 |
| COc1ccc(C)cc1NS(=O)(=O)c1ccc(-c2cnc(C3CC3)o2)cc1 | 376 |
| O=C(Nc1cccc(NC(=O)c2cccs2)c1)c1ccc([N+](=O)[O-])o1 | 11100 |
| CCOC(=O)c1c(C)[nH]c2c1-c1ccccc1C(=O)C2=O | < 260 |
| O=C(NC12CC3CC(CC(C3)C1)C2)c1ccc([N+](=O)[O-])o1 | < 260 |
| C=C(C(=O)c1ccccc1)C(C(=C)C(=O)c1ccccc1)c1ccc(OC)cc1 | < 260 |
| C[C@H]1CCCCO[C@H](CN(C)Cc2ccc(C(F)(F)F)cc2)[C@@H](C)CN([C@@H](C)CO)C(=O)c2cc(NS(=O)(=O)c3ccc(Cl)cc3)ccc2O1 | < 260 |
| CCCC(=O)NC1=C(Cl)C(=O)c2ccccc2C1=O | < 260 |
| Cc1ccc2c(c1)c1c3n2CCN(CC(N)=O)C3CCC1 (centres undefined) | 12300 |
| Cc1nc(Nc2nc(CSc3nc4ccccc4[nH]3)cc(=O)[nH]2)nc2ccccc12 | < 260 |
| CCOc1ccc(NC(=O)Nc2cc(OCC(F)(F)F)cc(OCC(F)(F)F)c2)cc1 | 9370 |
| COc1ccc2c(COC(=O)CNC(=O)C34CC5CC(CC(C5)C3)C4)cc(=O)oc2c1 | < 260 |
| CCC(C)(O)C(=O)OC1C(=O)OC2CC3C(C)=CC(=O)C(O)C3(C)C3C4(O)OCC23C1C(C)C4O (centres undefined) | 19700 |
| CCOc1ccc2nc(N/C(N)=N/C(=S)Nc3ccc(C)c(C)c3)nc(C)c2c1 | < 260 |
| CCOc1ccc(C(=O)C(CCC(CN(C)C)C(=O)c2ccc(OCC)cc2)CN(C)C)cc1 (centres undefined) | < 260 |
| COc1ccc(NC(=O)Nc2ccc3c(c2)C(=O)N([C@@H](C)CO)C[C@@H](C)[C@@H](CN(C)CC2CCCCC2)OCCCC[C@@H](C)O3)cc1 | < 260 |
| O=c1cc(-c2ccccc2)oc2ccc3ccccc3c12 | < 260 |
| Cn1c(SCC(=O)c2ccccc2)nnc1-c1ccccn1 | 1420 |
| COCCn1c(C)cc(C2=NNC(=NC3CC3)SC2)c1C | < 260 |
| Cc1ccc(S(=O)(=O)Nc2ccc3c(c2)CC(=O)N([C@H](C)CO)C[C@H](C)[C@H](CN(C)S(=O)(=O)c2ccc(F)cc2)O3)cc1 | 4300 |
| O=C1c2cccc3cc([N+](=O)[O-])cc(c23)C(=O)N1CCN1CCCC1 | < 260 |
| C=C(C)c1nc(Oc2ccccc2)nc(Oc2ccccc2)n1 | < 260 |
| CCCCN=C[C@]12CCC(O)CC1(O)CCC1[C@@H]2CC[C@]2(C)[C@H](C3C=CC(=O)O3)CCC12O (some centres undefined) | < 260 |
| Cc1cnc(NC(=O)c2ccc3c(c2)OCCO3)s1 | < 260 |

| Structure (SMILES) | AC50 [nM] |
| --- | --- |
| CN(C(=O)OC(C)(C)C)c1ccc(-c2nc3ccccc3s2)cc1 | < 260 |
| O=C(C(=O)N(Cc1ccccc1)Cc1ccccc1)c1c(-c2ccccc2)[nH]c2ccccc12 | < 260 |
| C[C@@H]1CN([C@H](C)CO)S(=O)(=O)c2ccc(C#CC3CCCC3)cc2O[C@@H]1CN(C)C(=O)Cc1ccncc1 | < 260 |
| O=C(CSc1ncccc1-c1nc2ccccc2[nH]1)N1CCc2ccccc21 | < 260 |
| Cc1ccc(NC(=O)CN(C)C(=O)Cn2ncc(Cl)c(Cl)c2=O)cc1 | < 260 |
| O=C(CCC(=O)c1ccccc1)NCCc1c[nH]c2ccccc12 | < 260 |
| C[C@@H]1CCCCO[C@@H](CN(C)S(=O)(=O)c2ccc(Cl)cc2)[C@H](C)CN([C@H](C)CO)C(=O)c2cc(NS(=O)(=O)c3ccc(F)cc3)ccc2O1 | 1720 |
| COc1ccc(F)cc1-c1cc(NC=O)c2ncc(-c3cc(OC)c(OC)c(OC)c3)n2c1 | < 260 |
| Oc1cccc2cc(Nc3ccccc3)cnc12 | < 260 |
| Brc1ccc(-n2cc(-c3ccccc3)c3c(NN4CCOCC4)ncnc32)cc1 | < 260 |
| COc1cc(C=C2C(=O)C=CC2=O)ccc1O | < 260 |
| Cc1cc(CN(C)C(=O)c2cc(COc3ccc4ncccc4c3)on2)on1 | < 260 |
| Cn1ncc2c(O/N=C(\N)c3ccc(C(F)(F)F)cc3)ncnc21 | < 260 |
| COc1cc(C2C3=C(COC3=O)Oc3cc4c(cc32)OCO4)cc(OC)c1O (centres undefined) | < 260 |
| COc1ccc(N2C(=O)CC(Sc3nnc(-c4ccccc4)o3)C2=O)cc1 (centres undefined) | < 260 |
| O=C1CN(C(=O)Cn2ncc(Cl)c(Cl)c2=O)c2ccccc2N1 | < 260 |
| C[C@@H]1CCCCO[C@H](CN(C)Cc2ccc(C(F)(F)F)cc2)[C@H](C)CN([C@H](C)CO)C(=O)c2cc(NS(=O)(=O)c3cccs3)ccc2O1 | < 260 |
| O=C(Nc1ccccc1)NN(C(=O)CCl)c1ccccc1 | 12400 |
| CCCC1=Nc2cc(C(=O)NCCCOCC)ccc2Sc2ccccc21 | < 260 |
| COc1cc(-c2cnc3c(NC=O)cc(-c4ccccc4)cn23)cc(OC)c1OC | < 260 |
| Cc1ccc(Cl)cc1N1CCN(C(=O)c2noc(C)c2[N+](=O)[O-])CC1 | < 260 |
| CCOC(=O)Nc1ccc2c(c1)N(C(=O)CCN(CC)CC)c1ccccc1S2=O (centres undefined) | < 260 |
